# Earlier results in patent publication US8580245B2, “Compositions and methods for treating and preventing cardiomyopathy and heart disease” (The Regents of the University of Michigan, priority 2005, dated 2013).
# Test system: elderly men with isolated diastolic dysfunction
# Conditions: verapamil vs placebo, 20 elderly men, p<0.05
smiles,measurement,value
COc1ccc(CCN(C)CCCC(C#N)(c2ccc(OC)c(OC)c2)C(C)C)cc1OC (stereo not shown) [verapamil],exercise time increase,33%
same,heart rate decrease,10%
same,peak left ventricular filling rate increase,30%
same,symptoms,improved
